# Assay results from patent publication US20240261333A1, “NOVEL TARGETS FOR ENHANCING ANTI-TUMOR IMMUNITY” (THE BROAD INSTITUTE, INC., priority 2021, published 2024).
# Columns and labels:
# [1] = biological target: Golgi Class I mannosidases IA, IB and IC; conditions: cited from earlier work
# [2] = system: CCLF_MELM_0011_T primary patient-derived melanoma model; assay: T cell cytotoxicity assay, primary patient-derived melanoma model against AXL or HER2 CAR T cells; type: cell-based, human; conditions: CCLF_MELM_0011_T treated with small molecule inhibitor
# Description: Expanded T cells were thawed and maintained in culture media for 8-10 h before incubation with cancer cells. Cancer cells were seeded in 96-well plates and allowed to attach for 3-4 h before T cells were added at the appropriate effector to target cell (E:T) ratio. Paired controls with no T cells added were included for each condition. After 18 h, cancer cells were washed twice with PBS to remove T cells, passaged, and cultured for 2 days. Primary patient-derived cell models were not passaged after T cell co-culture. Viability was measured using CellTiter-Glo (Promega G7571). For each E:T ratio, percent survival was calculated as viability of the cells incubated with T cells divided by viability of the paired control that was not incubated with T cells. For example, CD274-overexpressing melanoma cells that were co-cultured with ESO T cells were compared to CD274-overexpressing melanoma cells that were cultured without T cells in parallel. As an alternative cytotoxicity assay, A375 cells stably expressing Gaussia luciferase were co-cultured with ESO T cells. At each time point, 10% of cell culture media was used for the Gaussia luciferase assay (Targeting Systems GAR-2B) to directly measure cytotoxicity. […]
# [3] = biological target: T1, human endoplasmic reticulum a-1,2-mannosidase I (Homo sapiens, UniProt Q9UKM7); conditions: human enzyme; cited from earlier work
# T1 sequence (Q9UKM7 1-699): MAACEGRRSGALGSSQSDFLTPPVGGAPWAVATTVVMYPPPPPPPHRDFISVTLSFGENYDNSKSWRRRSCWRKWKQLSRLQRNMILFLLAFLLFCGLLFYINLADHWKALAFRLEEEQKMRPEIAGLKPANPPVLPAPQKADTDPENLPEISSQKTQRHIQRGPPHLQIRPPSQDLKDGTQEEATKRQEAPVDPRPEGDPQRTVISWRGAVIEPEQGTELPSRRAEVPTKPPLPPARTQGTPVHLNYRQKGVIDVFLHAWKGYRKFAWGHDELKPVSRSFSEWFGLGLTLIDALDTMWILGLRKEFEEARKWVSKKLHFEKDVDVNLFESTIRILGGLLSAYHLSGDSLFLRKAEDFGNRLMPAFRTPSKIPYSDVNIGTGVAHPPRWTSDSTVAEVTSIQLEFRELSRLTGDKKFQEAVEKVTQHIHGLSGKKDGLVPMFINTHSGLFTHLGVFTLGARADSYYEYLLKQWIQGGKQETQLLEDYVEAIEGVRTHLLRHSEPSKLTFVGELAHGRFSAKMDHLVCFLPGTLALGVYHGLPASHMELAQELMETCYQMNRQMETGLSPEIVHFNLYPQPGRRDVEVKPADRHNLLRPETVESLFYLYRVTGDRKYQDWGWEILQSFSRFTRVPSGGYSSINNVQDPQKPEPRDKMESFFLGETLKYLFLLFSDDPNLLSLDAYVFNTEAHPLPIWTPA
# [4] = system: A375 (NY-ESO-1+, HLA-A2+) melanoma cells; assay: T cell cytotoxicity assay (CellTiter-Glo), A375 against ESO T cells; type: cell-based, human
# Description: Expanded T cells were thawed and maintained in culture media for 8-10 h before incubation with cancer cells. Cancer cells were seeded in 96-well plates and allowed to attach for 3-4 h before T cells were added at the appropriate effector to target cell (E:T) ratio. Paired controls with no T cells added were included for each condition. After 18 h, cancer cells were washed twice with PBS to remove T cells, passaged, and cultured for 2 days. Primary patient-derived cell models were not passaged after T cell co-culture. Viability was measured using CellTiter-Glo (Promega G7571). For each E:T ratio, percent survival was calculated as viability of the cells incubated with T cells divided by viability of the paired control that was not incubated with T cells. For example, CD274-overexpressing melanoma cells that were co-cultured with ESO T cells were compared to CD274-overexpressing melanoma cells that were cultured without T cells in parallel. As an alternative cytotoxicity assay, A375 cells stably expressing Gaussia luciferase were co-cultured with ESO T cells. At each time point, 10% of cell culture media was used for the Gaussia luciferase assay (Targeting Systems GAR-2B) to directly measure cytotoxicity.
# For glycosylation inhibition, cells were treated with 20 μg/mL Kifunensine (Cayman Chemical 10009437) or 2 mM Benzyl 2-acetamido-2-deoxy-alpha-D-galactopyranoside (BAG; Millipore Sigma B4894-100MG) for 48 h to inhibit N- and O-glycosylation respectively unless otherwise indicated. For MCL1 inhibition, cells were treated with 1-10 μM of S63845 (Selleck Chemicals S8383) or AZD5991 (Selleck Chemicals S8643) for 4 h before incubation with T cells. Both glycosylation and MCL1 inhibitors were maintained at indicated concentrations during co-culture with T cells.
smiles,measurement,setting,value
O=C1N[C@@H]2[C@@H](O)[C@@H](O)[C@H](O)[C@@H](CO)N2C1=O [kifunensine],Ki,[1],23 nM
same,"Cell survival against T cell cytotoxicity, primary patient-derived melanoma model",[2],reduced survival
same,Ki,[3],130 nM
same,"Cell survival against T cell cytotoxicity, A375",[4]; A375 treated with small molecule inhibitor,reduced survival
same,Cell survival against T cell cytotoxicity,"[4]; B3GNT2-overexpressing A375 pretreated with inhibitor, E:T ratio of 3, kifunensine having a stronger effect",reduced A375 survival
